{
  "source": "patent US9598441B2",
  "about": "“Therapeutic compounds and methods” (Wayne State University, priority 2011, dated 2017)",
  "key": {"[1]": {"biological_target": "T1, His-TAT-HA-tagged A-epitope peptide [CARP-1 (951-980)] (Homo sapiens, UniProt Q8IX12)", "T1 construct": "wild-type or scrambled His-TAT-HA-CARP-1 (951-980) peptides; made in house; host or cells: E. coli BL-21 (DE3)", "T1 sequence (Q8IX12 951-980 limits assumed)": "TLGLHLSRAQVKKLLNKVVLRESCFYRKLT", "assay": "In vitro binding of SMIs, immobilized A-epitope peptide pre-incubated with CFM", "conditions": "100 μM, 30 min at RT; WB with anti-Gst", "procedure": "The CFM-4 and 5 were separately dissolved in DMSO to obtain a stock of 20-50 mM. For in vitro binding experiments we utilized affinity-purified Gst-APC-2 (685-754) and His-TAT-HA-tagged A-epitope (WT) peptide. Ten nanogram of the His-TAT-HA-tagged A-epitope (WT) peptide was first allowed to bind with Ni-NTA beads (ProBond, InVitrogen), and then the reaction was incubated with DMSO (control), 100 μM CFM-4, or 100 μM CFM-5 for 30 min at RT. The reactions were then subjected to three washes with the binding buffer, followed by incubation with 10 ng of affinity-purified Gst-APC-2 (685-754) peptide for 30 min at RT. The reactions were washed again for three times with PBS, eluted and analyzed on a SDS-PAGE followed by western blotting (WB) with anti-Gst antibodies. A similar strategy was performed by immobilizing the Gst-APC-2 (685-754) peptide with Gst-beads. The beads were washed, incubated with DMSO or the CFMs, and the reactions washed again. The reactions were then allowed to incubate with affinity purified A-epitope peptide, and the complexes analyzed by SDS-PAGE followed by WB with anti HA-tag antibodies."}, "[2]": {"system": "CARP-1, cyclin B1, Cdc20, Cdh1, APC-2, CDKIs, caspases, p38, Bcl2 family proteins", "assay": "Western blot of protein levels in treated cells", "type": "cell-based", "procedure": "(§1) Logarithmically growing cells were either untreated or treated with different agents for various time periods. The cells were lysed to prepare protein extracts. IP was carried out by incubating approximately 1 mg of the protein lysate with appropriate antibodies, and the immunoprecipitates or cell lysates were then electrophoresed on 9-12% SDS-polyacrylamide gels, and transferred to nitrocellulose membranes. The membranes were subsequently probed with various antibodies to determine expression/presence of the corresponding proteins. The cell growth inhibition was assessed by using MTT assay. Briefly, MTT (3-[4,5-Dimethylthiazol-2-yl]-2,5diphenyltetrazolium bromide) was dissolved in sterile 1×PBS to prepare a stock solution of 5 mg/ml. The solution was subsequently filtered through 0.2 μm filter and stored at 2-8° C. 4−5×10^2 cells were seeded in 96-well plates. After 72 h incubation with or without different agents, MTT stock solution was added to each culture being assayed to equal one tenth the original culture volume, followed by incubation of cells at 37° C. for another 2 h. At the end of the incubation, the media was removed and cells were treated with 100-200 μl of DMSO to solubilize the dye. The assessment of the live cells was derived by measuring the absorbance of the converted dye at wavelength of 570 nm."}, "[3]": {"system": "HBC cells transfected with scrambled, CARP-1 or Cdh1 SiRNAs", "assay": "MTT assay in SiRNA-transfected cells", "type": "cell-based, human", "procedure": "as §1\nTo test this possibility, cells were transfected with 100 nM each of the CARP-1 or the scrambled SiRNAs as detailed in methods. The SiRNA-transfected cells were then either untreated or treated with 20 μM CFM-4 for 24 h followed by determination of levels of CARP-1 and cyclin B1 proteins. […] In a separate experiment, cells were similarly transfected with CARP-1 SiRNA or scrambled SiRNAs followed by treatment with CFM-4 essentially as in FIG. 6A, and cell viabilities were determined by the MTT assay. […] In a separate experiment, cells were similarly transfected with Cdh1 SiRNA or scrambled SiRNAs followed by treatment with CFM-4 essentially as in FIG. 6C, and cell viabilities were determined by the MTT assay."}, "[4]": {"system": "immortalized, non-tumorigenic mammary epithelial MCF-10A cells", "assay": "MTT cell viability assay, non-tumorigenic cells", "type": "cell-based, human", "procedure": "as §1, with “The solution was subsequently filtered through 0.2 μm filter and stored at 2-8° C. 4−5×10^2 cells were seeded in 96-well plates. After 72 h incubation with or without different agents, MTT stock solution was added to each culture being assayed to equal one tenth the original culture volume, followed by incubation of cells at 37° C. for another 2 h. At the end of the incubation, the media was removed and cells were treated with 100-200 μl of DMSO to solubilize the dye.” left out\nTo test whether CFMs that interfere with CARP-1 binding with APC-2 modulate cell growth, HBC, colon, prostate, pancreatic cancer, MPM and lymphoma cells, as well as the immortalized, mammary epithelial MCF-10A cells were utilized. The cells were either treated with vehicle (DMSO) or various doses of the respective compound for a period of 72 h, and percent of live/viable cells for each compound was determined relative to the untreated controls as described in Methods."}},
  "data": [
    {"compound": "O=C1N(Cc2ccccc2Cl)c2ccccc2C12NN=C(c1ccccc1)S2", "note": "(stereo not drawn) [CFM-4, 1-(2-chlorobenzyl)-5′-phenyl-3′H-spiro[indoline-3,2′-[1,3,4]thiadiazol]-2-one]", "values": [
      {"measurement": "binding of immobilized A-epitope peptide with Gst-APC-2 (685-754) after pre-incubation with compound", "setting": "[1]", "result": "abrogated its binding"},
      {"measurement": "APC-2 levels (WB)", "setting": "[2]", "result": "unaffected"},
      {"measurement": "Bax expression (WB)", "setting": "[2]", "result": "failed to stimulate Bax expression"},
      {"measurement": "Cdc20 levels (WB)", "setting": "[2]", "result": "significantly reduced"},
      {"measurement": "Cdh1 levels (WB)", "setting": "[2]", "result": "modest decline"},
      {"measurement": "cleavage of caspases (WB)", "setting": "[2]", "result": "cleavage of caspases 9 and 8"},
      {"measurement": "tBid levels (WB)", "setting": "[2]", "result": "modest increase in tBid levels"},
      {"measurement": "CARP-1 levels (WB)", "setting": "[2]; 50 nM velcade 6 h or 24 h, 20 μM CFM-4 24 h", "result": "robust increase in CARP-1 levels"},
      {"measurement": "p38 activation (WB)", "setting": "[2]; 20 μM, from 6 h, sustained through 24 h", "result": "activation (phosphorylation) of p38"},
      {"measurement": "levels of p21WAF1/CIP1 and p27KIP1 CDKIs (WB)", "setting": "[2]; 0.5-1.0 h exposure", "result": "elevated"},
      {"measurement": "levels of p21WAF1/CIP1 and p27KIP1 CDKIs (WB)", "setting": "[2]; 3 h and beyond", "result": "decline"},
      {"measurement": "cyclin B1 levels (WB)", "setting": "[2]; 6 h and subsequent treatment periods", "result": "depleted cyclin B1"},
      {"measurement": "levels of BimEL (WB)", "setting": "[2]; 12 h or 24 h treatments", "result": "declined significantly"},
      {"measurement": "levels of Bims isoform (WB)", "setting": "[2]; 12 h or 24 h treatments", "result": "concomitant increase"},
      {"measurement": "levels of E2 ubiquitin ligase UbCH10 (WB)", "setting": "[2]; alone or in combination with caspase inhibitors", "result": "not affected"},
      {"measurement": "cleavage of PARP1 (WB)", "setting": "[2]; cells transfected with scrambled SiRNAs", "result": "robust cleavage of PARP1"},
      {"measurement": "levels of Bcl2, BclXL, Noxa, and Puma proteins (WB)", "setting": "[2]; different cells", "result": "failed to modulate levels"},
      {"measurement": "CARP-1 and cyclin B1 levels (WB)", "setting": "[2]; drug (ADR or TAM)-resistant MCF-7 cells", "result": "elevated CARP-1 and reduced cyclin B1 levels"},
      {"measurement": "cyclin B1 levels (WB)", "setting": "[2]; prostate and pancreatic cancer cells", "result": "induced cyclin B1 loss"},
      {"measurement": "CARP-1 levels (WB)", "setting": "[2]; time course, 6 h and subsequent treatment periods", "result": "stimulated CARP-1 levels"},
      {"measurement": "growth of cells transfected with scrambled SiRNAs (MTT)", "setting": "[3]; 20 μM CFM-4, 24 h", "result": "suppressed growth"},
      {"measurement": "growth inhibition in CARP-1 SiRNA-transfected cells (MTT)", "setting": "[3]; CARP-1 knockdown, 20 μM CFM-4, 24 h", "result": "blocked CFM-4-dependent inhibition of cell growth"},
      {"measurement": "growth inhibition in Cdh1 SiRNA-transfected cells (MTT)", "setting": "[3]; Cdh1 knockdown", "result": "blocked CFM-4-dependent inhibition of HBC cell growth"},
      {"measurement": "growth of MCF-10A cells (MTT)", "setting": "[4]", "result": "failed to attenuate growth"}
    ]}
  ]
}
